Measurements reported in US20110112299A1, “TETRACYCLIC COMPOUND” (KYOWA HAKKO KIRIN CO., LTD., priority 2008, published 2011).

Experiments:
[1] = system: transcription-promoting activity via the glucocorticoid receptor (A549/MMTV-LTR cells); format: cell-based; details: at a concentration of 300 nmol/L; relative to dexamethasone
Description: A pGL4.14 plasmid (Promega, product number: AY864928) having a cloned MMTV-LTR fragment upstream of the luciferase gene (−200 to +100 relative to the transcription initiation site) was introduced into A549 cells, and the obtained strain which is constitutively resistant to a selective antibiotic hygromycin B (A549/MMTV-LTR) was used for evaluation. The A549/MMTV-LTR cells were transferred to a 96-well plate (25000 cells/well) and were cultured overnight. […] Next, 20 μL of the test compound diluted to 5-fold of the desired concentration with F-12 medium or 20 μL of 4 μmol/L dexamethasone was added thereto, and the mixture was incubated under 5% CO2 at 37° C. for 6 hours. To each well, 50 μL of a luminescence reagent (Promega, product number: E2550 or E2650) was added, and the mixture was stirred to dissolve the cells, and the luciferase activity was measured by a plate reader (PerkinElmer, TopCount).
MMTV activity (%)=100×(luminescence amount in the presence of the compound−luminescence amount in the absence of the compound)/(luminescence amount in the presence of dexamethasone−luminescence amount in the absence of the compound)

[2] = system: IL-1β induced IL-6 production (A549 cells); assay: Inhibition assay for IL-1β induced IL-6 production in A549 cells (Test Example 3); format: cell-based, human; details: at a concentration of 100 nmol/L, IL-1β stimulation, relative to dexamethasone
Description: A549 cells cultured in F-12 medium supplemented with 10% bovine serum for 3 to 5 days were transferred to a 96-well plate (50000 cells/well) and then were cultured overnight. […] After the medium was removed by suction, 60 μL of F-12 medium was added to each well, and 20 μL of the test compound diluted to 5-fold of the desired concentration with F-12 medium or 20 μL of 4 μmol/L dexamethasone was added thereto. The test compound and the dexamethasone used here were prepared beforehand by dissolving in dimethyl sulfoxide (DMSO) and diluting with F-12 medium so that the final concentration of DMSO became 0.1% v/v or lower. After 30-minute incubation under 5% CO2 atmosphere at 37° C., 20 μL of 4 nmol/L IL-1β diluted with F-12 medium was added to each well, and then incubation was performed under a 5% CO2 atmosphere at 37° C. for 12 to 18 hours. The 96-well plate was centrifuged at 300×g at 4° C. for 5 minutes, and then the culture supernatant was collected for use as a sample for IL-6 measurement. The IL-6 produced in the culture supernatant was quantified by the ELISA method (R&D Systems, product number: DY206, DouSet ELISA Development System Human IL-6), and the production inhibition rate was calculated by the following formula. […]

[3] = biological target: T1, recombinant human progesterone receptor (Homo sapiens, UniProt P06401); assay: Human progesterone receptor assay (fluorescence polarization, Test Example 2); format: binding; details: at a concentration of 1000 nmol/L
T1 construct: purchased Panvera/Invitrogen P2899 (kit P2895)
T1 sequence (P06401 675-933 limits assumed): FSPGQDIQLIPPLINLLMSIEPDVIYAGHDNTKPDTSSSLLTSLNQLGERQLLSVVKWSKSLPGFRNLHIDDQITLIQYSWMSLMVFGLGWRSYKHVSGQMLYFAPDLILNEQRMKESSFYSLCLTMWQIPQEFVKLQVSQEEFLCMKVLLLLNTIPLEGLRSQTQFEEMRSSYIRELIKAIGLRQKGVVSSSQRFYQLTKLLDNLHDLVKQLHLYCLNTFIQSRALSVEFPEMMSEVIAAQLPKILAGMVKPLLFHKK
Description: In this assay, a fluorescence polarization assay kit (Panvera/Invitrogen, product number: P2895) was used. The recombinant human progesterone receptor (product number: P2899), the Fluoromore (trademark)-labeled progesterone (PL Green, product number: P2897), and the basic buffer solution (product number: P2901) which were used in the assay kit had been stored at −80° C. until used. A buffer solution for the assay was prepared by adding 250 fold dilution of 1 mol/L DTT to the basic buffer solution to give a final concentration of 4 mmol/L.
The assay was performed as follows. The test compound was diluted to 2-fold of the desired concentration with the buffer solution for the assay, and 16 μL of that was added to each well. […] The fluorescence polarization value of each well was measured using a plate reader (PerkinElmer, Fusion or Envision). […] To a positive control group, mifepristone (RU-486) was added so as to give a final concentration of 1 μmol/L. The progesterone receptor binding rate (%) was calculated by the following formula.
Progesterone receptor binding rate (%)=100×[1−(fluorescence polarization value of test compound solution−fluorescence polarization value of positive control solution)/(fluorescence polarization value of negative control solution−fluorescence polarization value of positive control solution)]

SMILES: CC/C(=C1\c2cc3cnn(C)c3cc2COc2ccccc21)c1cccc(NS(C)(=O)=O)c1 [Compound 2, (Z)-5-{1-[3-(methanesulfonamide)phenyl]propylidene}-1-methyl-5,11-dihydrobenzo[6,7]oxepino[4,3-f]indazole]
- MMTV activity [1]: ≤ 10%
- IL-6 production inhibitory activity [2]: ≥ 80%
- inhibitory activity (progesterone receptor binding rate) [3]: ≤ 10%
